# In patent publication US5436243A, “Aminoanthraquinone derivatives to combat multidrug resistance” (priority 1993, dated 1995):
# Read-outs that look alike come from different tables or passages of the source.
# Experiments:
# [1] = tested on: intrinsically resistant renal cell carcinoma cell lines; conditions: cited from earlier work
# MDR cell lines = conditions: literature; cited from earlier work
# patients = conditions: human, in vivo; cited from earlier work
# MCF7 WT = assay: Tumor cell clonogenic assay, MCF7 WT; type: cell-based, human; conditions: Homo sapiens
# Experimental: The tumor cell clonogenic assays measure clonal proliferation of tumor cells. In this assay, 300-500 cells are plated in 10 cm^2 wells, allowed to adhere overnight, and are treated the following day. Tumor cell colonies were counted after 10-12 days of culture. […] The IC50's are calculated as described above for the MTT proliferation assays.
# [2] = tested on: MCF7 Adr 10 human breast cancer cells; assay: Vinblastine accumulation assay, MCF7 Adr 10; type: cell-based
# Experimental: [^3 H] vinblastine ([^3 H] VLB) was added to a final concentration of 100 nM and the cells were incubated for 2.5 hours. At this time, the cells were washed 3 times in ice cold PBS and lysed in buffer containing 0.1% Triton X-100. Net accumulation of [^3 H] vinblastine was expressed as pmol/mg protein. In [^3 H]
# in vitro = conditions: human
# Experimental: (§1) Myelosuppression is often a dose limiting side effect of chemotherapeutic agents. […] The toxicities to human granulocyte-macrophage progenitors (CFU-GM) of 1b, 1c, and VLB was assessed by measuring inhibition of CFU-GM proliferation in cultures continuously exposed to each agent alone and compared to the toxicities to sensitive and resistant MCF7 in tumor cell clonogenic assays.
# (§2) METHOD: The CFLI-GM assay measures clonal proliferation of granulocyte/macrophage precursors in semisolid agar cultures. The progeny of the granulocyte/macrophage precursors remain in proximity of the progenitor cells and form colonies. Colonies which contain greater than 40 cells after 10-12 days of culture are counted using an inverted phase contrast microscope. The tumor cell clonogenic assays measure clonal proliferation of tumor cells. In this assay, 300-500 cells are plated in 10 cm^2 wells, allowed to adhere overnight, and are treated the following day. Tumor cell colonies were counted after 10-12 days of culture. The times of exposure in these experiments are similar; however, the concentrations of FCS are 20% in the CFU-GM assay and 10% in the tumor cell clonogenic assays. The IC50's are calculated as described above for the MTT proliferation assays. (See Example 4).
# (§3) To facilitate this comparison, a CFLI-GM toxicity index was calculated by dividing the CFU-GM IC50 by the respective tumor cell clonogenic IC50's in sensitive and resistant cells.
# [3] = tested on: granulocyte-macrophage progenitors (CFU-GM); assay: cells; conditions: for IC50: Homo sapiens, CFU-GM, read-out: Continuous Exposure IC50, CFU-GM
# Experimental: as §1, §2, §3
# [4] = Partition in Bligh-Dyer extracts; type: physicochemical; conditions: Bligh-Dyer extracts of treated cells
# Experimental: At these wavelengths, there was minimal absorbance by cellular components contained in the chloroform phase. […] METHOD: […] The monolayers were treated with 25 μM 1b or 1c and incubated at 37° C. After incubating the samples for the times indicated in FIG. 1, the monolayers were washed three times with DPBS and detached using 1 ml of Trypsin-EDTA.An aliquot of the cell suspension was counted using a Coulter Counter and a 0.8 ml aliquot was extracted in a Bligh-Dyer extraction (Bligh et at., Can. J. Biochem. 31:911-916 (1959)). The absorbance of the lower chloroform phase was measured at 648 nm and 600 nm using a spectrophotometer. The amount of 1b or 1c present in the extract was quantitated from a standard curve performed in cell extracts. The data is expressed as nmol anthraquinone/10^6 cells.
# [5] = tested on: MCF7 Adr 10 human breast cancer cells; assay: Time course of accumulation of anthraquinones in cells; type: cell-based; conditions: 25 μM, 37° C., MCF7 Adr 10 cells
# Experimental: METHOD: Near confluent monolayers of MCF7 ADR 10 were washed 2 times with Dulbecco's Phosphate Buffered Saline (DPBS) and 1 ml of Iscove's Modified Dulbecco's Medium (IMDM) was added to each well. The monolayers were treated with 25 μM 1b or 1c and incubated at 37° C. After incubating the samples for the times indicated in FIG. 1, the monolayers were washed three times with DPBS and detached using 1 ml of Trypsin-EDTA.An aliquot of the cell suspension was counted using a Coulter Counter and a 0.8 ml aliquot was extracted in a Bligh-Dyer extraction (Bligh et at., Can. J. Biochem. 31:911-916 (1959)). The absorbance of the lower chloroform phase was measured at 648 nm and 600 nm using a spectrophotometer. The amount of 1b or 1c present in the extract was quantitated from a standard curve performed in cell extracts. The data is expressed as nmol anthraquinone/10^6 cells.
# PKC [6] = assay: Micellar PKC screening assay; type: biochemical
# Text: The N-substituted diaminoanthraquinone, 1b, (1,4-bis-[[3'-(diethylamino)propyl]amino]anthraquinone), was identified as a PKC inhibitor in the micellar PKC screening assay and in platelets. […] Spectrophotometric analysis of 1b and lc indicated they were excellent chromophores with absorbance maxima at 648 and 600 nm in chloroform, respectively, and extinction coefficients of approximately 20,000. At these wavelengths, there was minimal absorbance by cellular components contained in the chloroform phase. These properties of 1b and 1c were utilized to determine the time course of accumulation of these compounds in MDR MCF7 Adr 10 cells.
# The activities of 1a, 1b, 1c and 1d and mitoxantrone, an anthraquinone antineoplastic drug, were evaluated in vinblastine drug accumulation assays performed by the following method. […] Mitoxantrone was identified as a PKC inhibitor in miceliar PKC assays. Compound 1d (1,4-bis-[[2-(4-morpholino)ethyl]amino]anthraquinone) was only evaluated in cellular studies.
# PKC [7] = assay: PKC inhibition in platelets; type: cell-based
# MCF7 Adr 10 [8] = assay: Tumor cell clonogenic assay, MCF7 ADR 10; type: cell-based, human; conditions: for IC50: Homo sapiens, NCI/ADR-RES, read-out: Continuous Exposure IC50, MCF7 ADR 10
# [9] = tested on: renal cell carcinoma cell lines, A704, SKRC7 and UOK-39
# MCF7 Adr 10 [10] = assay: 72 hour MTT proliferation assay, reversal of drug resistance in MCF7 Adr 10; type: cell-based, human; conditions: [1c] 0 μM
# Experimental: In 72 hour MTT proliferation assays using the following method, compounds 1b, 1c and 1d were assessed for inhibition of Vinca alkaloid and anthracycline drug resistance in MDR MCF7. Additionally, compounds 1b and 1c were assessed for potentiation of sensitivity to Vinca alkaloid and anthracycline drugs in the parental MCF7 WT cell line.
# METHOD: 5000 cells per well were plated in 100 μl of IMDM containing 10% FCS and allowed to adhere overnight. The following day the cells were treated with N-substituted 1,4-diaminoanthraquinones and exposed to graded concentrations of antineoplastic agents. 50 μl of IMDM 10% FCS containing either vehicle or N-substituted 1,4-diaminoanthraquinones at 3 times the final tested concentration was added to cells at timed intervals. The plates were incubated for 2 hours at 37° C. to allow maximal cellular accumulation of N-substituted 1,4-diaminoanthraquinones. 40 μl aliquots of IMDM 10% FCS containing either vehicle or graded concentrations of antineoplastic drugs at 5 times the final concentration were added to treatment groups. Following this addition, 10 μl of IMDM 10% FCS containing either vehicle or N-substituted 1,4-diaminoanthraquinone at 5 times the final concentration was added to each group of wells. The cells were incubated for 72 hours after treatment. At this time the viable cells in each treatment group were estimated in a colorimetric assay by adding MTT and incubating the cells at 37° C. for 3-4 hours. The media in each well was aspirated and MTT formazan was solubilized in isopropyl alcohol acidified with 0.1 N HCl. The absorbance of the solubilized formazan was quantitated using a plate reader spectrophotometer. […] The concentrations of antineoplastic drugs which inhibited proliferation by 50% (IC50's) were estimated by calculating a percentage from the ratio: antineoplastic drug treated groups/control group absorbance and plotting the dose response curve on semilog paper. The IC50 was estimated from this curve. To assess the effects of inhibition of resistance by N-substituted 1,4-diaminoanthraquinones, the percentages were calculated relative to cell groups treated with resistance modifier alone and IC50's calculated as above. A reversal factor was calculated by dividing the IC50 to the antineoplastic drug alone (Control group) by the IC50 to antineoplastic drug in cells treated with resistance modifier.
# [11] = biological target: P-glycoprotein in MCF7 Adr 10 membrane vesicles (Homo sapiens, UniProt P08183); conditions: MCF7 Adr 10 vesicles
# [12] = cfu-gm vs mcf7, CFU-GM toxicity indices
# Chain of P-glycoprotein in MCF7 Adr 10 membrane vesicles (P08183 whole entry): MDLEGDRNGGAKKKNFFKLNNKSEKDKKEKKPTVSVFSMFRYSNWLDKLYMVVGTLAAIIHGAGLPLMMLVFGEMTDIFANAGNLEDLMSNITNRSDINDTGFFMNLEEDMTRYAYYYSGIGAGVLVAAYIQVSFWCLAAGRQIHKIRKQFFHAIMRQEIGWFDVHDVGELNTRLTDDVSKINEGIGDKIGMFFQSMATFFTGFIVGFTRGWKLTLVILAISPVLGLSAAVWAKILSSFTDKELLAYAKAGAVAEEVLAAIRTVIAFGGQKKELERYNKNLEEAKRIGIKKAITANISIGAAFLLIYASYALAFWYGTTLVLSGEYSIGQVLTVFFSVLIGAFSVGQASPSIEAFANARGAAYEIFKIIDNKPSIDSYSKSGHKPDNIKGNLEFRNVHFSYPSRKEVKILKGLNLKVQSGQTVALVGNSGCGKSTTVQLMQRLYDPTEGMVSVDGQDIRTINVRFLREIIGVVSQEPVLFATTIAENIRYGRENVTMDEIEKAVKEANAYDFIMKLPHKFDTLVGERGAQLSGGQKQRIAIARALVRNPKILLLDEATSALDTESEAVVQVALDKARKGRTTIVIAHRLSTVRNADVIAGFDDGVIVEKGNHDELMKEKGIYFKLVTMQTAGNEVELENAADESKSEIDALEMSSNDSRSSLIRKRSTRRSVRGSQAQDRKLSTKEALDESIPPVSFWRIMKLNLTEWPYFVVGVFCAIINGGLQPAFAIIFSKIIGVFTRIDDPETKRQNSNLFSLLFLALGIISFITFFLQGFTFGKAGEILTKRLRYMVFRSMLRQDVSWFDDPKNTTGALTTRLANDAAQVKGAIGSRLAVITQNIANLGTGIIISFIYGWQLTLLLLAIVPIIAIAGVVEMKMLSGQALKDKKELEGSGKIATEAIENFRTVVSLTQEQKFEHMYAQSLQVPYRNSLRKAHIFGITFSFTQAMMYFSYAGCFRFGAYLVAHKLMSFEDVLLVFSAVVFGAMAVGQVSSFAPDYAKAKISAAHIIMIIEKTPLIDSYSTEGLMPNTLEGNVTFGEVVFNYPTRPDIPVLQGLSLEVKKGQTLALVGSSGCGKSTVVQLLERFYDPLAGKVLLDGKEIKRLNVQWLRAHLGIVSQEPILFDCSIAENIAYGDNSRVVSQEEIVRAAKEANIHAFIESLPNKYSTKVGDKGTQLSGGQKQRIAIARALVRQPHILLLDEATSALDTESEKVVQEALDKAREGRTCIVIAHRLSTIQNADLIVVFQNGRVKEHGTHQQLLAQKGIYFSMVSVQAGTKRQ
smiles,measurement,setting,value
CC/C(=C(\c1ccccc1)c1ccc(OCCN(C)C)cc1)c1ccccc1 [tamoxifen],drug accumulation and vinblastine resistance in renal cell carcinoma,[1],increase drug accumulation and decrease vinblastine resistance
same,drug accumulation and reversal of resistance in MDR cell lines,MDR cell lines,can also modulate resistance of estrogen receptor-negative MDR cell lines
same,toxicity in humans,patients,minimal neurologic toxicity that was reversible with cessation of tamoxifen
"CCN(CC)CCCNc1ccc(NCCCN(CC)CC)c2c1C(=O)c1ccccc1C2=O [Compound 1b, 1,4-bis-[[3'-(diethylamino)propyl]amino]anthraquinone]",IC50,"MCF7 WT; MCF7, tumor cell clonogenic assay, 10-12 days, read-out: Continuous Exposure IC50, MCF7 WT",0.4 µM
same,minimal effective concentration,"[2]; Homo sapiens, NCI/ADR-RES, 100 nM [3H] VLB, 2.5 hours, FIGS. 2 and 3, read-out: lowest concentration which causes a doubling of basal accumulation of vinblastine",25 µM
same,activity in vinblastine accumulation assay / drug accumulation,[2]; MDR MCF7,increase vinblastine accumulation in MDR MCF7
same,drug accumulation relative to other PKC inhibitors,[2]; drug accumulation assays,significantly greater activity in drug accumulation assays than other PKC inhibitors
same,selectivity ratio,in vitro; CFU-GM Toxicity Index (CFU-GM IC50 / Tumor Cell Clonogenic IC50),3.5
same,selectivity ratio,in vitro; [12],> 1
same,selectivity ratio,"in vitro; mcf7 vs cfu-gm, sensitivity of both tumor lines relative to CFU-GM",2 to 3.5
same,IC50,[3],1.4 µM
same,CFU-GM Toxicity Index (CFU-GM IC50 / Tumor Cell Clonogenic IC50),[3]; human,2.0
same,blue color partitioning with cellular phospholipids in the lower chloroform phase,[4],> 95%
same,time of maximal accumulation of 1b and 1c,[5],about 2 hours
same,PKC activity in micellar PKC screening assay,PKC [6],PKC inhibitor
same,PKC inhibition in platelets,PKC [7],PKC inhibitor
same,IC50,"MCF7 Adr 10 [8]; tumor cell clonogenic assay, 10-12 days",0.7 µM
same,relative sensitivity of MCF7 WT and MDR MCF7 to cytotoxicity,MCF7 Adr 10 [8]; clonogenic assays,MCF7 WT are more sensitive to cytotoxicity of 1b than MDR MCF7
"CC[C@]1(O)C[C@@H]2CN(CCc3c([nH]c4ccccc34)[C@@](C(=O)OC)(c3cc4c(cc3OC)N(C)[C@H]3[C@@](O)(C(=O)OC)[C@H](OC(C)=O)[C@]5(CC)C=CCN6CC[C@]43[C@@H]65)C2)C1 [VLB, reference compound]",vinblastine IC50 in renal lines relative to vinblastine IC50 of sensitive MCF7,[9],10-600 fold
same,IC50,"MCF7 WT; MCF7, read-out: Continuous Exposure IC50, MCF7 WT",0.00059 µM
same,IC50,"MCF7 Adr 10 [10]; Homo sapiens, NCI/ADR-RES, average ± SD of 3 experiments, read-out: VLB IC50",0.79 µM
same,Reversal Factor (VLB),MCF7 Adr 10 [10],1.0
same,selectivity ratio,in vitro; [12],< 1
same,selectivity ratio,"in vitro; cfu-gm vs mcf7 adr 10, toxicity to CFU-GM relative to MDR cells",~1000
same,toxicity to CFU-GM relative to drug sensitive WT cancer cells,[3],approximately twice as toxic to CFU-GM
same,IC50,[3],0.00028 µM
same,effect of unlabeled VLB on [3H] VLB association,[11],inhibited by addition of unlabeled VLB
same,IC50,MCF7 Adr 10 [8],0.21 µM
